Measured values taken from US9493439B1, “Proteasome inhibitors” (UNIVERSITY OF KENTUCKY RESEARCH FOUNDATION, priority 2014, dated 2016).

What was measured:
[1] = target: T1, CT-L activity of purified constitutive proteasome (Homo sapiens, UniProt P28074); assay: G4 analogs against the CT-L activity of purified proteasomes; assay type: biochemical
T1 construct: purchased R&D Systems
Experimental: Initially, purified 20S human proteasomes (CP and IP, R&D Systems) were used to assess the in vitro inhibition of proteasome catalytic activities by G4 and its analogs. In the 96-well format assays involving a 100/4 L total volume, 20S proteasomes (0.5/4 g/mL) were incubated with G4, its analogs, or reference compounds (e.g., carfilzomib) in assay buffer (20 mM Tris-HCl, 0.5 mM EDTA, 0.035% SDS) for 30 min at room temperature. Reactions were initiated by the addition of individual subunit-selective fluorogenic substrates containing the AMC (7-amino-4-methylcoumarin) group. The following substrates were used: for /31 activity, Ac-nLPnLD-AMC (100/4M); for /32 and /32i activity, Boc-LRR-AMC (200/4M); for /35 activity, Ac-WLA-AMC (20/4M); for /31i activity, Ac-PAL-AMC (100/4M); for /35i activity, Ac-ANW-AMC (100/4M). The fluorescence of liberated AMC was measured over a period of 90 min at room temperature using excitation and emission wavelengths of 360 and 460 nm on a SpectraMax M5 fluorescence plate reader (Molecular Devices).
In comparison, modifications at the ring D had little impact on the activity of G4. […] The mechanism by which these compounds enhance the CT-L activity of proteasome is unclear at this time.

[2] = Microsomal stability assay, mouse; assay type: in vitro ADME; conditions: mouse liver microsomes, compared to carfilzomib and bortezomib
Experimental: (§1) The metabolic stability profiles of G4-1 and reference compounds (carfilzomib and bortezomib) were assessed by monitoring the disappearance of the test compounds in the presence of liver microsomes. A typical incubation mixture (100 sL total volume) for metabolic stability studies contained 1 sM test compounds, 0.5 mg/mL microsomal protein (pooled Balb/c mouse liver microsomes prepared in-house or BD UltraPool human liver microsomes), 100 mM Tris-HCl buffer (pH 7.4), and NADPH-generating system (5 mM isocitric acid, 0.2 unit/mL isocitric acid dehydrogenase, 5 mM magnesium chloride, 1 mM NADP^+). After preincubation at 37° C. for 5 min, the reactions were started by addition of NADP^+ and further incubated for another 0, 5, 10, 20 min. For control experiments, NADPH and/or liver microsomes were omitted from these incubations. The reactions were terminated by adding 100 sL of ice-cold acetonitrile containing phenytoin (1 sM) as internal standard and keeping on ice for 30 min, followed by centrifugation at 16 100 g for 15 min to obtain the supernatant. Aliquots (5 sL) were then analyzed for substrate disappearance using liquid chromatography-tandem mass spectrometry (Agilent 1200 HPLC instrument interfaced with Applied Biosystems Qtrap 3200) equipped with an electrospray ion source.

[3] = tested on: T-L activity of proteasomes in RPMI 8226 cell extracts; assay: T-L activity of proteasomes in RPMI 8226 cell extracts (Boc-LRR-AMC); assay type: biochemical, human
Experimental: (§2) The inhibitory effects of G4-1 on the CT-L, C-L and T-L activities were measured by assessing the hydrolysis of the fluorogenic proteasome substrates Suc-LLVY-AMC, Z-LLE-AMC and Boc-LRR-AMC, respectively. […] FIG. 5C provides a reaction progress curve with 30 min preincubation of RPMI 8226 cell extracts and G4-1. […] FIG. 5E includes the potency of G4-1 in inducing cell death in BxPC-3 cell lines with acquired resistance to bortezomib or carfilzomib. FIG. 5F provides a comparison of IC50 values of BxPC-3 sublines resistant to carfilzomib or bortezomib to its parental cell lines.
(§3) In separate experiments, cytosolic extracts of RPMI-8226 or BxPC-3 cells were prepared according to the method of Kisselev and Goldberg^25 and used in place of purified proteasomes. The fluorescence from liberated AMC of the subunit-selective probe substrates was measured as described above.

[4] = tested on: CT-L activity of proteasomes in RPMI 8226 cell extracts; assay: CT-L activity of proteasomes in RPMI 8226 cell extracts (Suc-LLVY-AMC); assay type: biochemical, human
Experimental: as §2, §3

[5] = tested on: C-L activity of proteasomes in RPMI 8226 cell extracts; assay: C-L activity of proteasomes in RPMI 8226 cell extracts (Z-LLE-AMC); assay type: biochemical, human
Experimental: as §2, §3

LNCaP tumors [6] = conditions: mouse, in vivo
Experimental: (§6) Male nude mice bearing LNCaP tumors received intraperitoneal injections of either G4-1 (5 mg/kg), carfilzomib (5 mg/kg), or vehicle alone (8% DMSO in HP-β-cyclodextrin and sodium citrate) twice a week for 4 weeks (n=5 mice/group). Results are expressed as mean and standard deviation.
(§7) Six-week-old male BALB/c athymic nude mice (purchased from Orient Bio Inc., SungNam, Republic of Korea) were maintained in accordance with the National Institute of Toxicological Research of the Korea Food and Drug Administration guidelines as well as the regulations for the care and use of laboratory animals of the animal ethics committee of the Konyang University. LNCaP cells (2×10^6 cells/50 sL) were subcutaneously implanted into each animal. After the xenograft tumors had grown to a size of ‘−100 mm^3, mice (n=5/group) were dosed intraperitoneally twice a week for 4 weeks with G4-1 (5 mg/kg), carfilzomib (5 mg/kg), or vehicle only (8% DMSO in HP-Beta-CD and citrate). Tumor volumes (calculated using the following formula, (width)^2×length/2) and body weights were measured every 4 days during the experimental period. At the end of the experimental period (at day 30), mice were euthanized by cervical dislocation and tumors were isolated and weighed.

LNCaP tumors [7] = assay: In vivo efficacy assay, LNCaP xenograft; conditions: 5 mg/kg intraperitoneally twice a week for 4 weeks
Experimental: as §6, §7

[8] = tested on: proteasome in RPMI 8226 cell lysates; assay: Jump dilution reversibility assay; assay type: biochemical, human; conditions: preincubation of RPMI 8226 cell extracts for 30 min
Experimental: In further investigation of the mode of proteasome inhibition by G4-1, a dilution assay was performed following a procedure previously reported.^26 Briefly, RPMI 8226 cell lysates containing 30/4 g of total protein were incubated with G4-1 (10/4M) in 20S proteasome assay buffer for 30 min at room temperature. Lysates treated with G4-1 were subsequently transferred to a semimicrocuvette, and the baseline proteasome activity was determined by measuring the hydrolysis rate of Suc-LLVY-AMC. After establishment of the baseline, lysates treated with G4-1 were rapidly mixed with the 20S proteasome assay buffer, yielding 25-fold dilution. Following this 25-fold dilution from 10 to 0.4/4M G4-1, the hydrolysis of Suc-LLVY-AMC was again monitored over approximately 30 min.

[9] = tested on: variety of cancer cell lines including LNCaP prostate cancer cells; assay: Cytotoxic effects, multiple cancer cell lines; assay type: cell-based, human
Description: (§4) Human cancer cell lines BxPC-3, H358, H-23, LNCaP, Panc-1, and RPMI 8226 were obtained from the ATCC (American Type Culture Collection) and maintained in the ATCC-recommended media, DMEM or RPMI 1640 supplemented with 10% fetal bovine serum (from GIBCO, CeliGro, and Atlanta Biologicals). BxPC-3 cells with acquired resistance to bortezomib or carfilzomib were established by growing them in the presence of stepwise in-creasing concentrations of the respective drug over a period of approximately 6 months. In order to determine the extent of drug resistance, cytotoxicity assays were performed using BxPC-3 sublines adapted to 60 nM bortezomib and 200 nM carfilzomib, respectively.
(§5) The cytotoxic effects of G4 and its analogs were determined using CellTiter Glo assay or CellTiter 96 Aqueous One Solution Cell Proliferation assay (Promega). Adherent cells (Panc-1, LNCaP, BxPC-3, bortezomib- or carfilzomib-resistant BxPC-3 sublines) growing in log phase were plated at 7000-10000 cells per well. RPMI 8226 cells growing in suspension were collected by centrifugation and plated at 10 000 cells per well. […] After 72 h, the cell viability was determined using the assay protocol recommended by the manufacturers. The resulting signals were quantified using a Veritas microplate luminometer or a SpectraMax M5 microplate spectrophotometer (Molecular Devices).

[10] = Microsomal stability assay, human; assay type: in vitro ADME; conditions: human liver microsomes, compared to carfilzomib and bortezomib
Experimental: as §1

[11] = tested on: BxPC-3 cell lines with acquired resistance to bortezomib or carfilzomib; assay: Cytotoxic effects, BxPC-3 sublines with acquired resistance to bortezomib or carfilzomib; assay type: cell-based, human
Description: as §4, §5

[12] = Phase II clinical trials; cited from earlier work

Cc1ccc(OS(=O)(=O)c2cccc(C(F)(F)F)c2)c(-c2cc(-c3ccccc3)n(CC(=O)N[C@@H]3CCNC3)n2)c1 [G4-1]
inhibitory potency against the CT-L activity of purified proteasomes [1]: one of the most potent inhibitors
metabolic stability [2]: excellent metabolic stability
activity against the T-L activity of cell extracts [3]: no activity
inhibition of proteasomal CT-L activity of cell extracts [4]: effectively inhibit
inhibition of proteasomal C-L activity of cell extracts [5]: effectively inhibit
systemic toxicity in mice (LNCaP tumors [6]): without apparent systemic toxicity
tumor growth in vivo (LNCaP tumors [7]): effectively suppressed tumor growth
inhibition of proteasomal activity after preincubation [8]: nearly complete inhibition
anticancer activity against cancer cell lines [9]: good anticancer activity
metabolic stability [10]: excellent metabolic stability
anticancer effect in cell line models with acquired resistance [11]: not negatively impacted

CC(C)C[C@H](NC(=O)[C@H](CCc1ccccc1)NC(=O)CN1CCOCC1)C(=O)N[C@@H](Cc1ccccc1)C(=O)N[C@@H](CC(C)C)C(=O)[C@@]1(C)CO1 [carfilzomib]
body weight over the course of treatment (LNCaP tumors [7]): weight loss
median duration of response [12]: 7.8 months
overall survival [12]: ~16 months
response rate [12]: under 25%
